Data published in PubChem BioAssay AID1963977 (Molecular Pharmacology Branch, DTP, NCI, 2024).

Test system: 624824-186-R-J3-PDC multicell spheroids, viability
Assay: Anticancer human tumor 624824-186-R-J3-PDC patient-derived colon adenocarcinoma cell line growth inhibition [PI3K]
Conditions: for IC50: curve of first compound; for viability, T/C: stronger effect = lower value
Outline: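 Tumor cells were combined with HUVEC and MSCs into spheroids, then dosed with PI3K-inhibitor combinations over half-log ranges capped near clinical Cmax or 10 microM.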

[1] = second compound 0.00316 µM, first compound 0.0316 µM
[2] = second compound 0.00316 µM, first compound 0.1 µM
[3] = second compound 0.00316 µM, first compound 0.316 µM
[4] = second compound 0.00316 µM, first compound 1 µM
[5] = second compound 0.00316 µM, first compound 3.16 µM
[6] = second compound 0.00316 µM, first compound 10 µM
[7] = second compound 0.01 µM, first compound 0.0316 µM
[8] = second compound 0.01 µM, first compound 0.1 µM
[9] = second compound 0.01 µM, first compound 0.316 µM
[10] = second compound 0.01 µM, first compound 1 µM
[11] = second compound 0.01 µM, first compound 3.16 µM
[12] = second compound 0.01 µM, first compound 10 µM
[13] = second compound 0.0316 µM, first compound 0.0316 µM
[14] = second compound 0.0316 µM, first compound 0.1 µM
[15] = second compound 0.0316 µM, first compound 0.316 µM
[16] = second compound 0.0316 µM, first compound 1 µM
[17] = second compound 0.0316 µM, first compound 3.16 µM
[18] = second compound 0.0316 µM, first compound 10 µM
[19] = second compound 0.1 µM, first compound 0.0316 µM
[20] = second compound 0.1 µM, first compound 0.1 µM
[21] = second compound 0.1 µM, first compound 0.316 µM
[22] = second compound 0.1 µM, first compound 1 µM
[23] = second compound 0.1 µM, first compound 3.16 µM
[24] = second compound 0.1 µM, first compound 10 µM
[25] = second compound 0.316 µM, first compound 0.0316 µM
[26] = second compound 0.316 µM, first compound 0.1 µM
[27] = second compound 0.316 µM, first compound 0.316 µM
[28] = second compound 0.316 µM, first compound 1 µM
[29] = second compound 0.316 µM, first compound 3.16 µM
[30] = second compound 0.316 µM, first compound 10 µM
[31] = second compound 1 µM, first compound 0.0316 µM
[32] = second compound 1 µM, first compound 0.1 µM
[33] = second compound 1 µM, first compound 0.316 µM
[34] = second compound 1 µM, first compound 1 µM
[35] = second compound 1 µM, first compound 3.16 µM
[36] = second compound 1 µM, first compound 10 µM
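Also: spheroids exposed to agents for seven days before luminescence read.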
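For viability, T/C in this document: luminescent signal used as a stand-in for spheroid viability; percent viability relative to DMSO vehicle control wells taken as 100%.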

How did the IC50 (second compound 0.00316 µM) turn out when `Cn1ncc(Cl)c1-c1cc(C(=O)NC(CN)Cc2cccc(F)c2)sc1Cl` (stereo unspecified) + COc1c(OCCCN2CCOCC2)ccc2c3n(c(=NC(=O)c4cnc(N)nc4)nc12)CCN3 was run?
The IC50 was 9.34 µM.

And the IC50 (second compound 0.01 µM)?
The IC50 was greater than 10 µM.

What about the IC50 (second compound 0.0316 µM) of the same molecule?
Its IC50 is 4.16 µM.

What about the IC50 (second compound 0.1 µM) of the same molecule?
Its IC50 is 2.59 µM.

What about the IC50 (second compound 0.316 µM) of the same molecule?
Its IC50 is 0.455 µM.

And the IC50 (second compound 1 µM)?
The IC50 was less than 0.0316 µM.

And the viability, T/C [1]?
Its viability, T/C is 106%.

What about the viability, T/C [2] of the same molecule?
Its viability, T/C is 96.6%.

What about the viability, T/C [3] of the same molecule?
Its viability, T/C is 92%.

And the viability, T/C [4]?
Its viability, T/C is 74.8%.

And the viability, T/C [5]?
Its viability, T/C is 68.5%.

And the viability, T/C [6]?
Its viability, T/C is 47.2%.

What about the viability, T/C [7] of the same molecule?
The viability, T/C was 97.6%.

What about the viability, T/C [8] of the same molecule?
The viability, T/C was 99.3%.

And the viability, T/C [9]?
The viability, T/C was 95%.

What about the viability, T/C [10] of the same molecule?
Its viability, T/C is 71.1%.

And the viability, T/C [11]?
Its viability, T/C is 57.3%.

And the viability, T/C [12]?
Its viability, T/C is 48.6%.

What about the viability, T/C [13] of the same molecule?
The viability, T/C was 94.2%.

And the viability, T/C [14]?
Its viability, T/C is 96.4%.

And the viability, T/C [15]?
The viability, T/C was 83.6%.

What about the viability, T/C [16] of the same molecule?
Its viability, T/C is 82.5%.

And the viability, T/C [17]?
Its viability, T/C is 52.8%.

And the viability, T/C [18]?
The viability, T/C was 37.2%.

And the viability, T/C [19]?
The viability, T/C was 78.8%.

What about the viability, T/C [20] of the same molecule?
Its viability, T/C is 80.5%.

What about the viability, T/C [21] of the same molecule?
The viability, T/C was 75.4%.

And the viability, T/C [22]?
Its viability, T/C is 60.9%.

What about the viability, T/C [23] of the same molecule?
The viability, T/C was 48.8%.

What about the viability, T/C [24] of the same molecule?
The viability, T/C was 33%.

And the viability, T/C [25]?
The viability, T/C was 54.2%.

What about the viability, T/C [26] of the same molecule?
Its viability, T/C is 54.5%.

And the viability, T/C [27]?
Its viability, T/C is 51.5%.

And the viability, T/C [28]?
Its viability, T/C is 46%.

And the viability, T/C [29]?
Its viability, T/C is 39.9%.

And the viability, T/C [30]?
The viability, T/C was 25.9%.

And the viability, T/C [31]?
Its viability, T/C is 32.4%.

What about the viability, T/C [32] of the same molecule?
Its viability, T/C is 26.8%.

What about the viability, T/C [33] of the same molecule?
Its viability, T/C is 27.8%.

What about the viability, T/C [34] of the same molecule?
The viability, T/C was 32.2%.

What about the viability, T/C [35] of the same molecule?
The viability, T/C was 29.7%.

And the viability, T/C [36]?
The viability, T/C was 21.7%.

What does the source list for `Cn1nccc1Nc1nccc(-c2ccn(C(CO)c3ccc(Cl)c(F)c3)c(=O)c2)n1` (stereo unspecified) + COc1c(OCCCN2CCOCC2)ccc2c3n(c(=NC(=O)c4cnc(N)nc4)nc12)CCN3?
IC50 (second compound 0.00316 µM): 6.98 µM; IC50 (second compound 0.01 µM): 1.36 µM; IC50 (second compound 0.0316 µM): 0.4 µM; IC50 (second compound 0.1 µM): 0.153 µM; IC50 (second compound 0.316 µM): < 0.0316 µM; IC50 (second compound 1 µM): < 0.0316 µM; viability, T/C [1]: 111%; viability, T/C [2]: 84.7%; viability, T/C [3]: 100%; viability, T/C [4]: 72.8%; viability, T/C [5]: 57.7%; viability, T/C [6]: 46.6%; viability, T/C [7]: 112%; viability, T/C [8]: 100%; viability, T/C [9]: 87.5%; viability, T/C [10]: 51.4%; viability, T/C [11]: 41.8%; viability, T/C [12]: 34.4%; viability, T/C [13]: 90.2%; viability, T/C [14]: 83.8%; viability, T/C [15]: 56.2%; viability, T/C [16]: 26.4%; viability, T/C [17]: 25.1%; viability, T/C [18]: 21.8%; viability, T/C [19]: 74.5%; viability, T/C [20]: 58%; viability, T/C [21]: 35.9%; viability, T/C [22]: 14.2%; viability, T/C [23]: 10.7%; viability, T/C [24]: 9.81%; viability, T/C [25]: 46.3%; viability, T/C [26]: 38.4%; viability, T/C [27]: 18.3%; viability, T/C [28]: 7.62%; viability, T/C [29]: 4.31%; viability, T/C [30]: 2.66%; viability, T/C [31]: 26%; viability, T/C [32]: 20.9%; viability, T/C [33]: 13.4%; viability, T/C [34]: 6.73%; viability, T/C [35]: 3.58%; viability, T/C [36]: 2.38%

How did the IC50 (second compound 0.00316 µM) turn out when `Cn1ncnc1[C@H]1c2n[nH]c(=O)c3cc(F)cc(c23)N[C@@H]1c1ccc(F)cc1` + COc1c(OCCCN2CCOCC2)ccc2c3n(c(=NC(=O)c4cnc(N)nc4)nc12)CCN3 was run?
Its IC50 is greater than 0.1 µM.

And the IC50 (second compound 0.01 µM)?
The IC50 was greater than 0.1 µM.

What about the IC50 (second compound 0.0316 µM) of the same molecule?
The IC50 was greater than 0.1 µM.

What about the IC50 (second compound 0.1 µM) of the same molecule?
The IC50 was greater than 0.1 µM.

What about the IC50 (second compound 0.316 µM) of the same molecule?
The IC50 was less than 0.000316 µM.

What about the IC50 (second compound 1 µM) of the same molecule?
The IC50 was less than 0.000316 µM.

And the viability, T/C (second compound 0.00316 µM, first compound 0.000316 µM)?
The viability, T/C was 103%.

What about the viability, T/C (second compound 0.00316 µM, first compound 0.001 µM) of the same molecule?
The viability, T/C was 97.5%.

And the viability, T/C (second compound 0.00316 µM, first compound 0.00316 µM)?
The viability, T/C was 102%.

And the viability, T/C (second compound 0.00316 µM, first compound 0.01 µM)?
The viability, T/C was 96.3%.

What about the viability, T/C [1] of the same molecule?
The viability, T/C was 90.1%.

What about the viability, T/C [2] of the same molecule?
The viability, T/C was 102%.

What about the viability, T/C (second compound 0.01 µM, first compound 0.000316 µM) of the same molecule?
The viability, T/C was 115%.

What about the viability, T/C (second compound 0.01 µM, first compound 0.001 µM) of the same molecule?
The viability, T/C was 110%.

What about the viability, T/C (second compound 0.01 µM, first compound 0.00316 µM) of the same molecule?
Its viability, T/C is 102%.

And the viability, T/C (second compound 0.01 µM, first compound 0.01 µM)?
Its viability, T/C is 93.1%.

What about the viability, T/C [7] of the same molecule?
The viability, T/C was 97.1%.

And the viability, T/C [8]?
Its viability, T/C is 107%.

And the viability, T/C (second compound 0.0316 µM, first compound 0.000316 µM)?
The viability, T/C was 91.1%.

What about the viability, T/C (second compound 0.0316 µM, first compound 0.001 µM) of the same molecule?
Its viability, T/C is 103%.

And the viability, T/C (second compound 0.0316 µM, first compound 0.00316 µM)?
The viability, T/C was 88.5%.

What about the viability, T/C (second compound 0.0316 µM, first compound 0.01 µM) of the same molecule?
Its viability, T/C is 90.8%.

And the viability, T/C [13]?
Its viability, T/C is 87.2%.

What about the viability, T/C [14] of the same molecule?
Its viability, T/C is 97.3%.

What about the viability, T/C (second compound 0.1 µM, first compound 0.000316 µM) of the same molecule?
The viability, T/C was 77.1%.

What about the viability, T/C (second compound 0.1 µM, first compound 0.001 µM) of the same molecule?
The viability, T/C was 76%.

What about the viability, T/C (second compound 0.1 µM, first compound 0.00316 µM) of the same molecule?
Its viability, T/C is 83.1%.

And the viability, T/C (second compound 0.1 µM, first compound 0.01 µM)?
Its viability, T/C is 73.3%.

What about the viability, T/C [19] of the same molecule?
Its viability, T/C is 75.3%.

And the viability, T/C [20]?
The viability, T/C was 71%.

What about the viability, T/C (second compound 0.316 µM, first compound 0.000316 µM) of the same molecule?
The viability, T/C was 48.3%.

What about the viability, T/C (second compound 0.316 µM, first compound 0.001 µM) of the same molecule?
Its viability, T/C is 48.3%.

And the viability, T/C (second compound 0.316 µM, first compound 0.00316 µM)?
Its viability, T/C is 54%.

And the viability, T/C (second compound 0.316 µM, first compound 0.01 µM)?
The viability, T/C was 44.9%.

What about the viability, T/C [25] of the same molecule?
Its viability, T/C is 48.7%.

And the viability, T/C [26]?
Its viability, T/C is 46%.

And the viability, T/C (second compound 1 µM, first compound 0.000316 µM)?
The viability, T/C was 27.3%.

What about the viability, T/C (second compound 1 µM, first compound 0.001 µM) of the same molecule?
Its viability, T/C is 28%.

And the viability, T/C (second compound 1 µM, first compound 0.00316 µM)?
The viability, T/C was 30.1%.

What about the viability, T/C (second compound 1 µM, first compound 0.01 µM) of the same molecule?
The viability, T/C was 25.9%.

And the viability, T/C [31]?
Its viability, T/C is 23.9%.

And the viability, T/C [32]?
Its viability, T/C is 27%.
